Measured values taken from patent US20260098008A1, “COVALENT, CHEMOGENETIC ACTIVATORS FOR K2P POTASSIUM CHANNELS AND USES THEREOF” (THE REGENTS OF THE UNIVERSITY OF CALIFORNIA, priority 2022, published 2026).
Numbering of substitutions follows the chain as printed.

What was measured:
Format in all cases: cell-based
G171F TREK-1^CG* = target: T1, G171F TREK-1^CG* (Mus musculus, UniProt P97438, G186F/S146C); experiment: TEVC in Xenopus oocytes, attenuated channels; conditions: 20 μM; sequential addition of ML335, CAT335, BL-1249; 0 mV
T1 construct: expressed in transfected cells; host or cells: Xenopus laevis oocytes injected with mRNA
T1 sequence (P97438 1-411 isoform P97438-2 S131C/G171F): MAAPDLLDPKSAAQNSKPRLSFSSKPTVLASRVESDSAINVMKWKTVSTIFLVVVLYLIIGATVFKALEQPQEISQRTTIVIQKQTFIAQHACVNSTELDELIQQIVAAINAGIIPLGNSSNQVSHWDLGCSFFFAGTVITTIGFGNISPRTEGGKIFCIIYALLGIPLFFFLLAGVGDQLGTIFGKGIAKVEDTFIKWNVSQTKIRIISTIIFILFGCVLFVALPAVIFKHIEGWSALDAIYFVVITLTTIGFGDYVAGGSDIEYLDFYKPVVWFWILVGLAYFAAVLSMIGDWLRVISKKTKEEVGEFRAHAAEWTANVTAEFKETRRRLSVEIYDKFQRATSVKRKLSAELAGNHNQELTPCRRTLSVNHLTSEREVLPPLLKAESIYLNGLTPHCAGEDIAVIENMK
Source text: (§1) Mouse K2P2.1 (TREK-1) (Genbank accession number: NP_034737.2), mouse K2P10.1 (TREK-2) (NM_001316665.1), mouse K2P4.1 (TRAAK) (NM_008431.3), human K2P4.1 (TRAAK) (NM_033310.2) and mouse K2P18.1(TRESK) (NM_207261.3) were used for this study. Point mutations were introduced by site-directed mutagenesis using custom primers and confirmed by sequencing before use. For studies using Xenopus oocytes, K2P channels were subcloned into a previously reported pGEMHE/pMO vector (46). For expression in HEK293 cells, mouse K2P2.1 (TREK-1) and mutants were expressed from a previously described pIRES2-EGFP vector in HEK293 cells (46,47). K2P2.1 (TREK-1) tandems were constructed by connecting the open reading frames for the individual subunits with a linker encoding the […] (SEQ ID NO: 19) sequence. Tandems used for HEK293 cells included an N-terminal HA tag ([…] (SEQ ID NO: 20)) on the first subunit.
(§2) Xenopus laevis oocytes were harvested according to UCSF IACUC Protocol AN129690 and digested using collagenase (Worthington Biochemical Corporation, #LS004183, 0.8-1.0 mg/mL) in Ca^21-free ND96 (96 mM NaCl, 2 mM KCl, 3.8 mM MgCl2, 5 mM HEPES pH 7.4) immediately post-harvest, as previously reported (31,33). Oocytes were maintained at 18° C. in ND96 (96 mM NaCl, 2 mM KCl, 1.8 mM CaCl2, 2 mM MgCl2, 5 mM HEPES pH 7.4) supplemented with antibiotics (100 units mL^−1 penicillin, 100 μg mL^−1 streptomycin, 50 μg mL^−1 gentimycin) and used for experiments within one week of harvest.
(§3) Defolliculated stage V-VI oocytes were microinjected with 0.5-36 ng mRNA and currents were recorded within 16-48 h hours of injection.
(§4) For recordings, oocytes were impaled with borosilicate recording microelectrodes (0.4-2.0 MΩ resistance) backfilled with 3 M KCl and were subjected to constant perfusion of ND96 at a rate of 3 ml min^−1. Recording solutions containing K2P activators were prepared immediately prior to use from DMSO stocks (20-100 mM), with final DMSO concentrations of 0.1%. Currents were evoked from a −80 mV holding potential followed by a 300 ms ramp from −150 mV to +50 mV. Data were recorded using a GeneClamp 500B amplifier (MDS Analytical Technologies) controlled by pCLAMP8 software (Molecular Devices), and digitized at 1 kHz using Digidata 1332 Å digitizer (MDS Analytical Technologies). For each recording, control solution (ND96) was perfused over a single oocyte until current was stable before switching to solutions containing the test compounds at various concentrations. Representative traces and dose response plots were generated in GraphPad Prism 9.

A286F TREK-1^CG* = target: T2, A286F TREK-1^CG* (Mus musculus, UniProt P97438, A301F/S146C); experiment: TEVC in Xenopus oocytes, attenuated channels; conditions: 20 μM; sequential addition of ML335, CAT335, BL-1249; 0 mV
T2 construct: expressed in transfected cells; host or cells: Xenopus laevis oocytes injected with mRNA
T2 sequence (P97438 1-411 isoform P97438-2 S131C/A286F): T1 sequence (P97438 1-411 isoform P97438-2 S131C/G171F) with F171G, A286F
Source text: as §1, §2, §3, §4

Q258K K2P4.1 (TRAAK)^CG* = target: T3, Q258K K2P4.1 (TRAAK)^CG* (Homo sapiens, UniProt Q9NYG8, Q232K/S92C); experiment: TEVC in Xenopus oocytes; conditions: 20 μM; after 2 min
T3 construct: expressed in transfected cells; host or cells: Xenopus laevis oocytes injected with mRNA
T3 sequence (Q9NYG8 1-393 S92C/Q232K): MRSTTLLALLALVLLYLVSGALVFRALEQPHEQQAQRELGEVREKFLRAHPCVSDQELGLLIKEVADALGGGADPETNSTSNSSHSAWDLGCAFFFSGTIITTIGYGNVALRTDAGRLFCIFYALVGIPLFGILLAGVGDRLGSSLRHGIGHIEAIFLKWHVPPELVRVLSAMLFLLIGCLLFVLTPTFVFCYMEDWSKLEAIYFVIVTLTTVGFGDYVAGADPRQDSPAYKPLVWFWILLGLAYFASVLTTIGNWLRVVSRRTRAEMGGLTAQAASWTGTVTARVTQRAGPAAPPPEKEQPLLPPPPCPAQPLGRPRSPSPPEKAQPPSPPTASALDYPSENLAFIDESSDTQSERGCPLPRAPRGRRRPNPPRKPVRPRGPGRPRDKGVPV

`c1ccc(-c2nn[nH]n2)c(Nc2cccc3c2CCCC3)c1` [BL-1249, reference compound] was tested, and the “Fold-activation (I activator/I control)” value (G171F TREK-1^CG*) was 62+3 fold and the “Fold-activation (I activator/I control)” value (A286F TREK-1^CG*) was 53+5 fold.
`O=C(NCc1ccc(Cl)cc1Cl)c1ccc(N2C(=O)C=CC2=O)cc1` [CAT335] was tested, and the “Fold-activation (I activator/I control)” value (G171F TREK-1^CG*) was 7.8±1.2 fold, the “Fold-activation (I activator/I control)” value (A286F TREK-1^CG*) was 21±3 fold and the “Fold-activation (I activator/I control)” value (Q258K K2P4.1 (TRAAK)^CG*) was 7.4 ± 0.6 fold.
`CS(=O)(=O)Nc1ccc(C(=O)NCc2ccc(Cl)cc2Cl)cc1` [ML335, reference compound] was tested, and the “Fold-activation (I activator/I control)” value (Q258K K2P4.1 (TRAAK)^CG*) was 3.7±0.3 fold.
